Consider 17 compounds from patent publication US11612606B2, “8-aminoisoquinoline compounds and uses thereof” (priority 2018, dated 2023).

Structures can show the parent of a compound that is named as a salt. Where two headings read alike, the source gives them in different places. Where only a bound is given, the exact number is not on record here.

In assay [1] the test system is primary human pan T cells. The experiment in a line: Human T-cell IL2 induction assay. It counts as cell-based. How it is done: Assay Principle: Anti-CD3 and anti-CD28 activates TCR signaling in primary human pan T cells leading to IL-2 promoter induction. Secreted IL-2 in cell culture supernatant is detected by electrochemiluminescence using a capture antibody against IL-2 and an anti-IL-2 antibody labeled with SULFO-tag. Also see www.mesoscale.com for additional electrochemiluminescence technology information.
Assay Procedure: Incubate primary human pan T cells with varying concentrations of test compounds for 30 minutes in a humidified incubator at 37° C. and 5% CO2. Transfer cells to a plate pre-coated with a fixed concentration of anti-human CD3 (determined separately for each donor lot) and add soluble anti-human CD28 (final concentration=1 μg/ml). Stimulate cells in a humidified incubator at 37° C. and 5% CO2 for 4 hours. Transfer 25 μl of supernatant to a MSD single spot plate pre-coated with an anti-human IL-2 antibody. Incubate MSD plate overnight at 4° C. with gentle shaking. Wash MSD plate 4× with wash buffer. Add SULFO-tagged detection antibody at a 1:50 dilution and incubate at room temperature shaking for 2 hours. Wash MSD plate 4× with wash buffer and add 150 μl 2×MSD read buffer. Read on an MSD instrument. Normalize data to stimulated/untreated controls to calculate % activity at each concentration of compound.
Instrumentation: • Biomek FX for liquid handling (Beckman Coulter) • MSD SECTOR S 600 (Meso Scale Discovery)
Exemplary compounds of Formula (I) were tested in the human T-cell IL-2 induction assays.

Assay [2] concerns the target HPK full length, T165E S171E (Homo sapiens (Human), UniProt Q92918, S171E/T165E). The experiment in a line: HPK1-FL HTRF enzymatic assay ("HTRF"). It counts as biochemical. Conditions: ATP 1 mM, read-out: HPK1 Ki. Summed up:
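HTRF detection of phosphorylated biotin-SLP-76 used Eu-anti-pSLP76 antibody and SA-XL665, read after 60 min. The kinase reaction ran 60 min at […], following a 30-min compound preincubation with the full-length enzyme.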

Chain of HPK full length, T165E S171E (Q92918 whole entry T165E/S171E, looked up): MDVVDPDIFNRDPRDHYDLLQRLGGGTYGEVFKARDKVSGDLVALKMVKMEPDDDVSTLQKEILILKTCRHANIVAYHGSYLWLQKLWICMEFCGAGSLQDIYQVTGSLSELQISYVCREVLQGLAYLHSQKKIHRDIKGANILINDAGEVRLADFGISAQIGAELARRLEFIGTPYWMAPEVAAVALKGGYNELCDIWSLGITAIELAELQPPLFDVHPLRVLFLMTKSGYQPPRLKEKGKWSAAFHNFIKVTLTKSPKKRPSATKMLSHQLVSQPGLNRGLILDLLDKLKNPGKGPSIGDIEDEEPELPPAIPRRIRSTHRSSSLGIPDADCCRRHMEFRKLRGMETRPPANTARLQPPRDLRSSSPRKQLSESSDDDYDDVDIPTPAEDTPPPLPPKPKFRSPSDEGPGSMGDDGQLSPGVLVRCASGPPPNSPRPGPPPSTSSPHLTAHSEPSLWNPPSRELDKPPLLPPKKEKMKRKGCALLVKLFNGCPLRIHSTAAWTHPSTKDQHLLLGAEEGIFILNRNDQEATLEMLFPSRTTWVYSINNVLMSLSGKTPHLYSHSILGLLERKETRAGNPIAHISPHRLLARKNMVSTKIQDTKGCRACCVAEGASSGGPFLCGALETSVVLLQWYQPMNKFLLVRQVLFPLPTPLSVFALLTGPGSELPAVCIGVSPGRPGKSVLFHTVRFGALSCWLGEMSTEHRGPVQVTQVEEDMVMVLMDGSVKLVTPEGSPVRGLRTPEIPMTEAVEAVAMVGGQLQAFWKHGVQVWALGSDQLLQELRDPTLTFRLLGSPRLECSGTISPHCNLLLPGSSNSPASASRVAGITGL

`CC[C@]1(O)C[C@H](OC(=O)Nc2cc3cc(-c4cnc5c(c4C)NCCO5)c(F)c(N)c3cn2)C1` [Compound 512b, (1r,3s)-3-Ethyl-3-hydroxycyclobutyl (8-amino-7-fluoro-6-(8-methyl-2,3-dihydro-1H-pyrido[2,3-b][1,4]oxazin-7-yl)isoquinolin-3-yl)carbamate hydrochloride]: in assay [1] (assayed concentration 2.778 μM), the “% IL-2 increase relative to untreated cells” value was 2613%. Also, in assay [2] (hydrochloride), the Ki was less than 0.013 nM.

For the compound `Cc1c(-c2cc3cc(NC(=O)O[C@H]4C[C@](C)(O)[C@@H]4C)ncc3c(N)c2F)cnc2c1NCCO2` [Compound 526c, (1S,2R,3S)-3-Hydroxy-2,3-dimethylcyclobutyl (8-amino-7-fluoro-6-(8-methyl-2,3-dihydro-1H-pyrido[2,3-b][1,4]oxazin-7-yl)isoquinolin-3-yl)carbamate], the “% IL-2 increase relative to untreated cells” value in assay [1] (assayed concentration 2.778 μM) is on record as 1677%. Further, in assay [2], the Ki came to 0.015 nM.

For the compound `Cc1c(-c2cc3cc(NC(=O)O[C@@H]4CCC(=O)N(C)C4)ncc3c(N)c2F)cnc2c1NCCO2` [Compound 409b, (R)-1-Methyl-6-oxopiperidin-3-yl (8-amino-7-fluoro-6-(8-methyl-2,3-dihydro-1H-pyrido[2,3-b][1,4]oxazin-7-yl)isoquinolin-3-yl)carbamate], the “% IL-2 increase relative to untreated cells” value in assay [1] (assayed concentration 2.778 μM) came out at 2838%. In addition, the Ki in assay [2] came out at 0.048 nM.

Consider `Cc1c(-c2cc3cc(NC(=O)O[C@H]4C[C@@](C)(O)[C@H]4C)ncc3c(N)c2F)cnc2c1NCCO2` [Compound 526b, (1S,2S,3R)-3-Hydroxy-2,3-dimethylcyclobutyl (8-amino-7-fluoro-6-(8-methyl-2,3-dihydro-1H-pyrido[2,3-b][1,4]oxazin-7-yl)isoquinolin-3-yl)carbamate], for which the “% IL-2 increase relative to untreated cells” value in assay [1] (assayed concentration 2.778 μM) was determined as 970%. For the same compound, in assay [2], the Ki was found to be 0.016 nM.

For the compound `Cc1c(-c2cc3cc(NC(=O)O[C@H]4CCN(C)C4)ncc3c(N)c2F)cnc2c1NCCO2` [Compound 411a, (S)-1-Methylpyrrolidin-3-yl (8-amino-7-fluoro-6-(8-methyl-2,3-dihydro-1H-pyrido[2,3-b][1,4]oxazin-7-yl)isoquinolin-3-yl)carbamate], in assay [1] (assayed concentration 2.778 μM), the “% IL-2 increase relative to untreated cells” value was determined as 2119%. The Ki in assay [2] is 0.25 nM.

As to `Cc1c(-c2cc3cc(NC(=O)O[C@H]4C[C@H](N5CCOCC5)C4)ncc3c(N)c2F)cnc2c1NCCO2` [Compound 550a, (1r,3r)-3-Morpholinocyclobutyl (8-amino-7-fluoro-6-(8-methyl-2,3-dihydro-1H-pyrido[2,3-b][1,4]oxazin-7-yl)isoquinolin-3-yl)carbamate], in assay [1] (assayed concentration 2.778 μM), the “% IL-2 increase relative to untreated cells” value was found to be 1059%. Moreover, in assay [2], the Ki was less than 0.013 nM.

In the case of `Cc1c(-c2cc3cc(NC(=O)O[C@@H]4CCN(C5COC5)C[C@H]4F)ncc3c(N)c2F)cnc2c1NCCO2` [Compound 445b, (3R,4R)-3-Fluoro-1-(oxetan-3-yl)piperidin-4-yl(8-amino-7-fluoro-6-(8-methyl-2,3-dihydro-1H-pyrido[2,3-b][1,4]oxazin-7-yl)isoquinolin-3-yl)carbamate], the “% IL-2 increase relative to untreated cells” value in assay [1] (assayed concentration 2.778 μM) turned out to be 1436%.

On to `Cc1c(-c2cc3cc(NC(=O)O[C@H]4COC[C@@H]4F)ncc3c(N)c2F)cnc2c1NCCO2` (single isomer, unassigned) [Compound 477b], for which the “% IL-2 increase relative to untreated cells” value in assay [1] (assayed concentration 5.469 μM) is 1494%. In assay [2], the Ki came out at 0.017 nM.

`Cc1c(-c2cc3cc(NC(=O)N[C@H]4CCC[C@H]4F)ncc3c(N)c2F)cnc2c1NCCO2` [Compound 727b, 1-[8-Amino-7-fluoro-6-(8-methyl-2,3-dihydro-1H-pyrido[2,3-b][1,4]oxazin-7-yl)-3-isoquinolyl]-3-[(1S,2R)-2-fluorocyclopentyl]urea]: the “% IL-2 increase relative to untreated cells” value in assay [1] (assayed concentration 0.926 μM) is 938%. The Ki in assay [2] was less than 0.013 nM.

Regarding `Cc1c(-c2cc3cc(NC(=O)NC4CCOCC4)ncc3c(N)c2F)cnc2c1NCCO2` [Compound 701, 1-(8-Amino-7-fluoro-6-(8-methyl-2,3-dihydro-1H-pyrido[2,3-b][1,4]oxazin-7-yl)isoquinolin-3-yl)-3-(tetrahydro-2H-pyran-4-yl)urea], the “% IL-2 increase relative to untreated cells” value in assay [1] (assayed concentration 2.778 μM) was 4163%. Moreover, the Ki in assay [2] is less than 0.013 nM.

With `Cc1c(-c2cc3cc(NC(=O)O[C@H]4CC[C@@H]4C#N)ncc3c(N)c2F)cnc2c1NCCO2` [Compound 535a, (1S,2R)-2-Cyanocyclobutyl (8-amino-7-fluoro-6-(8-methyl-2,3-dihydro-1H-pyrido[2,3-b][1,4]oxazin-7-yl)isoquinolin-3-yl)carbamate], in assay [1] (assayed concentration 2.778 μM), the “% IL-2 increase relative to untreated cells” value was found to be 831%. The Ki in assay [2] was less than 0.013 nM.

On to `Cc1c(-c2cc3cc(NC(=O)OC4CC(C)(O)C4)ncc3c(N)c2F)cnc2c1NCCO2` (stereo not drawn) [Compound 486, (3-Hydroxy-3-methyl-cyclobutyl) N-[8-amino-7-fluoro-6-(8-methyl-2,3-dihydro-1H-pyrido[2,3-b][1,4]oxazin-7-yl)-3-isoquinolyl]carbamate], for which the “% IL-2 increase relative to untreated cells” value in assay [1] (assayed concentration 2.778 μM) was found to be 1400%. For the same compound, the Ki in assay [2] was less than 0.013 nM.

Turning to `Cc1c(-c2cc3cc(NC(=O)O[C@@H]4CCCN(C)C4)ncc3c(N)c2F)cnc2c1NCCO2` [Compound 416a, (R)-1-Methylpiperidin-3-yl (8-amino-7-fluoro-6-(8-methyl-2,3-dihydro-1H-pyrido[2,3-b][1,4]oxazin-7-yl)isoquinolin-3-yl)carbamate], the “% IL-2 increase relative to untreated cells” value in assay [1] (assayed concentration 2.778 μM) is listed as 2989%. In addition, the Ki in assay [2] worked out at 0.075 nM.

Turning to `Cc1c(-c2cc3cc(NC(=O)O[C@H]4C[C@@H](CC#N)C4)ncc3c(N)c2F)cnc2c1NCCO2` [Compound 536b, (1s,3r)-3-(Cyanomethyl)cyclobutyl (8-amino-7-fluoro-6-(8-methyl-2,3-dihydro-1H-pyrido[2,3-b][1,4]oxazin-7-yl)isoquinolin-3-yl)carbamate], in assay [1] (assayed concentration 8.333 μM), the “% IL-2 increase relative to untreated cells” value came out at 2280%.

For the compound `Cc1c(-c2cc3cc(NC(=O)O[C@H]4CCC[C@@H]4C#N)ncc3c(N)c2F)cnc2c1NCCO2` (single isomer, unassigned) [Compound 482b], in assay [1] (assayed concentration 2.778 μM), the “% IL-2 increase relative to untreated cells” value was 1719%. For the same compound, in assay [2], the Ki is less than 0.013 nM.

Take `CC(=O)N1CC(OC(=O)Nc2cc3cc(-c4cnc5c(c4C)NCCC5)c(F)c(N)c3cn2)C1` [Compound 429, 1-Acetylazetidin-3-yl (8-amino-7-fluoro-6-(4-methyl-5,6,7,8-tetrahydro-1,5-naphthyridin-3-yl)isoquinolin-3-yl)carbamate formic acid]: in assay [2], the Ki stood at 0.028 nM.

With `Cc1c(-c2cc3cc(NC(=O)O[C@H]4C[C@@](C)(C#N)C4)ncc3c(N)c2F)cnc2c1NCCO2` [Compound 537a, (1s,3s)-3-Cyano-3-methylcyclobutyl (8-amino-7-fluoro-6-(8-methyl-2,3-dihydro-1H-pyrido[2,3-b][1,4]oxazin-7-yl)isoquinolin-3-yl)carbamate], the Ki in assay [2] amounted to 0.015 nM.
